In publication PMC6163054 (Chembiochem : a European journal of chemical biology, 2018):

Biological target: Fluc (firefly luciferase) (Photinus pyralis, UniProt P08659)
Test: bioluminescence kinetics, luminometer, nonlinear regression
Format: biochemical
Conditions: ATP, Mg2+, pH 7.6; text says low millimolar range

Fluc (firefly luciferase), sequence (P08659 whole entry): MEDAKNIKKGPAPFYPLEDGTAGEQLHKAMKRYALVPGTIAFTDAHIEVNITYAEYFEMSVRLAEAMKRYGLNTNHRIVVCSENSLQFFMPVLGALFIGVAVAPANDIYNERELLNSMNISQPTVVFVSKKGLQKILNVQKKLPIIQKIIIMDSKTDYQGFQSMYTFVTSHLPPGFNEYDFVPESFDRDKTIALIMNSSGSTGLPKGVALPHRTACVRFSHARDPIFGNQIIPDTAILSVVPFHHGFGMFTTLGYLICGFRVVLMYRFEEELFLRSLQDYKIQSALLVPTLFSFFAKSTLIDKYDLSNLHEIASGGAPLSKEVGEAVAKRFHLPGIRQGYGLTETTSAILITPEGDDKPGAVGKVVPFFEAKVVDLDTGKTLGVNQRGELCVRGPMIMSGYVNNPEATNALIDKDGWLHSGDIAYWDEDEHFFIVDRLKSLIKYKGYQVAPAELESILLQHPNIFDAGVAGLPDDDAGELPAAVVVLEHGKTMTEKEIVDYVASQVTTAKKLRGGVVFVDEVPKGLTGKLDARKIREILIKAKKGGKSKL

Compound | apparent Km
O=C(O)[C@H]1CSC(c2nc3c[nH]c(=O)cc3s2)=N1 [compound 3, (S)-2-(Thiazolo[4,5-c]pyridin-6(5H)-one-2-yl)-4,5-dihydrothiazole-4-carboxylic acid] | The apparent Km values measured for both luciferins were in the low millimolar range
O=C(O)[C@H]1CSC(c2nc3ccc(=O)[nH]c3s2)=N1 [compound 4, (S)-2-(Thiazolo[5,4-b]pyridin-5(4H)-one-2-yl)-4,5-dihydrothiazole-4-carboxylic acid] | The apparent Km values measured for both luciferins were in the low millimolar range
